Results taken from patent publication US20230271969A1, “NITROGEN-CONTAINING FUSED RING DERIVATIVE INHIBITOR, PREPARATION METHOD THEREFOR AND USE THEREOF” (Shanghai Hansoh Biomedical Co., Ltd., priority 2020, published 2023).

Tests used:
NK3 receptors [1] = molecular target: T1, NK3 receptors (Homo sapiens, UniProt P29371); test: Antagonism of IP1 in HEK293 cells with stable expression of NK3; format: cell-based; conditions: agonist Senktide 3 nM, read-out: NK3R IC50 (nM) IP1
T1 construct: expressed in transfected cells
T1 sequence (P29371 1-465): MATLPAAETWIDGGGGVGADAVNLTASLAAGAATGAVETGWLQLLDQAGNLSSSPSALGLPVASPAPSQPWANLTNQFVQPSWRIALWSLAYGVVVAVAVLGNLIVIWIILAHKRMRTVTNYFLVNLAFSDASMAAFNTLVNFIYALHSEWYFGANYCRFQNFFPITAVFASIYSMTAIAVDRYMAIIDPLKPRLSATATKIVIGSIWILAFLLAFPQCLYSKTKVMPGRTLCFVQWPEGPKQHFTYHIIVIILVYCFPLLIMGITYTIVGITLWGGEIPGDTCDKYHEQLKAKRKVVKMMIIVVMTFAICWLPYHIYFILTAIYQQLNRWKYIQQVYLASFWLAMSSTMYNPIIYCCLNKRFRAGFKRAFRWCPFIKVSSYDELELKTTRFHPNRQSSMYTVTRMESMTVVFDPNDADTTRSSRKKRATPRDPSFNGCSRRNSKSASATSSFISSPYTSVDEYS

NK3 receptors [2] = molecular target: T1, NK3 receptors; test: Calcium ion fluidity (FLIPR) in cells with stable expression of NK3 receptors; format: cell-based; conditions: calcium signal, antagonist mode, read-out: NK3R IC50 (nM) FLIPR

| SMILES | IC50 (NK3 receptors [1]) [nM] | IC50 (NK3 receptors [2]) [nM] |
| --- | --- | --- |
| C[C@@H]1c2nnc(-c3nc4cnc(Cl)cc4s3)n2CCN1C(=O)c1ccc(F)cc1 [Example 37, (R)-(3-(6-Chlorothiazolo[4,5-c]pyridin-2-yl)-8-methyl-5,6-dihydro-[1,2,4]triazolo[4,3-a]pyrazin-7(8H)-yl)(4-fluorophenyl)methanone] | 56.5 | 48.9 |
| [2H]c1cc(C(=O)N2CCn3c(-c4nc(Cl)ns4)nnc3[C@H]2C)ccc1F [Example 56, (R)-(3-(3-Chloro-1,2,4-thiadiazol-5-yl)-8-methyl-5,6-dihydro-[1,2,4]triazolo[4,3-a]pyrazin-7(8H)-yl)(4-fluorophenyl-3-d)methanone] | 76 | 155 |
